# Results: paper PMC9232105, “S-Adenosylmethionine–responsive cystathionine β-synthase modulates sulfur metabolism and redox balance in Mycobacterium tuberculosis” (Science Advances, 2022)
# B1: Mycobacterium tuberculosis cystathionine β-synthase (MtbCbs, Rv1077), wild type (enzyme)
# chain: MRIAQHISELIGGTPLVRLNSVVPDGAGTVAAKVEYLNPGGSSKDRIAVKMIEAAEASGQLKPGGTIVEPTSGNTGVGLALVAQRRGYKCVFVCPDKVSEDKRNVLIAYGAEVVVCPTAVPPHDPASYYSVSDRLVRDIDGAWKPDQYANPEGPASHYVTTGPEIWADTEGKVTHFVAGIGTGGTITGAGRYLKEVSGGRVRIVGADPEGSVYSGGAGRPYLVEGVGEDFWPAAYDPSVPDEIIAVSDSDSFDMTRRLAREEAMLVGGSCGMAVVAALKVAEEAGPDALIVVLLPDGGRGYMSKIFNDAWMSSYGFLRSRLDGSTEQSTVGDVLRRKSGALPALVHTHPSETVRDAIGILREYGVSQMPVVGAEPPVMAGEVAGSVSERELLSAVFEGRAKLADAVSAHMSPPLRMIGAGELVSAAGKALRDWDALMVVEEGKPVGVITRYDLLGFLSEGAGRR
# modifications: PLP bound to K44 (internal aldimine)
# notes: also called WT MtbCbs; native MtbCbs
# What was measured:
# [1] = target: T1, cystathionine β-synthase (MtbCbs, Rv1077) (Mycobacterium tuberculosis, UniProt P9WP51); assay: acid-ninhydrin and LC-MS/MS cystathionine formation; lead acetate kinetics with Cys; format: biochemical; set-up: gene cbs; full-length WT MtbCbs
# [2] = target: T1, cystathionine β-synthase (MtbCbs, Rv1077); format: biochemical; set-up: gene cbs; full-length WT MtbCbs
# [3] = target: T1, cystathionine β-synthase (MtbCbs, Rv1077); assay: cryo-EM ([…] Å) with SAM + Ser; cystathionine formation by acid-ninhydrin and LC-MS/MS; format: binding; set-up: gene cbs; full-length WT MtbCbs
# [4] = target: T1, cystathionine β-synthase (MtbCbs, Rv1077); assay: biochemical; format: binding; set-up: gene cbs; full-length WT MtbCbs, C-terminal 6×His
# SEC + SEC-MALS = target: the molecule itself; assay: SEC + SEC-MALS
molecule,measurement,setting,value
NC(CCS)C(=O)O [L-Hcys],acid-ninhydrin and LC-MS/MS cystathionine formation; lead acetate kinetics with,[1],MtbCbs produces Cysth from Ser + Hcys and Cys + Hcys
N[C@@H](CS)C(=O)O [L-cysteine],lead acetate H2S assay with steady-state kinetics; LC-MS/MS of lanthionine,[2],lead-acetate assay confirmed that MtbCbs generates H2S using Cys or Hcys + Cys but not from Hcys alone
N[C@@H](CO)C(=O)O [L-serine],cryo-EM (4.25 Å) with SAM + Ser; cystathionine formation by acid-ninhydrin and L,[3],"formation of external aldimine/aminoacrylate at the active site, which indicates association of Ser with PLP"
C[S+](CC[C@H](N)C(=O)[O-])C[C@H]1O[C@@H](n2cnc3c(N)ncnc32)[C@H](O)[C@@H]1O (some centres unmarked) [S-adenosylmethionine],Kd,[4],~128 µM
B1,stoichiometry N,SEC + SEC-MALS,4
